The values that follow come from US9320750B2, “Compositions and methods of treatment of drug resistant cancers” (priority 2012, dated 2016).

In assay [1] the test system is BT-20 cells. How it is done: (§1) 1×10^6 cells were seeded in a 10 cm dish 24 hr prior to the experiment. […] Following the treatment time course, cells were washed in PBS, trypsinized, and fixed in 4% paraformaldehyde (PFA) in PBS for 15 min at room temperature (RT), then resuspended in ice cold methanol and incubated overnight at −20° C. Cells were then washed twice in PBS+0.1% Tween and stained with antibodies directed against cleaved forms of caspase-3 and PARP (BD PharMingen). […] Data reported are always percent cleaved-caspase-3/cleaved-PARP double positive cells.
(§2) Following the treatment time course, cells were washed, trypsinized, fixed in 4% paraformaldehyde for 15 min at room temperature, resuspended in ice-cold methanol, and incubated overnight at −20° C. Cells were then washed twice in PBS-Tween and stained with antibodies against cleaved caspase-3 and poly(ADP-ribose) polymerase (PARP). Secondary Alexa-conjugated anti-bodies were used for visualization in a BD FacsCaliber flow cytometer.

In the next assay the test system is BT-474 cells. The assay is described as follows: Apoptosis, cleaved caspase-3/cleaved PARP flow cytometry. Format: cell-based, human. The method, then: (§3) 1×10^6 cells were seeded in a 10 cm dish 24 hr prior to the experiment. […]. Following the treatment time course, cells were washed in PBS, trypsinized, and fixed in 4% paraformaldehyde (PFA) in PBS for 15 min at room temperature (RT), then resuspended in ice cold methanol and incubated overnight at −20° C. Cells were then washed twice in PBS+0.1% Tween and stained with antibodies directed against cleaved forms of caspase-3 and PARP (BD PharMingen). Secondary antibodies conjugated to Alexa dyes (488 and 647) were used for visualization in a BD FacsCaliber flow cytometer (Molecular Probes). Data reported are always percent cleaved-caspase-3/cleaved-PARP double positive cells.
as §2

The test system of assay [2] is MDA-MB-453 cells. The description is as above. Format: cell-based, human. How it is done: as §3, §2
Another assay concerns Hs578Bst. Described as above. Particulars: erlotinib-doxorubicin combinations; normal peripheral breast tissue line. In kind it is cell-based, human. The method, then: as §1, §2
Assay [3] relates to ten triple-negative cell lines. The assay is described as follows: Apoptosis across panel of triple-negative cell lines. The following applies: time-staggered ERL→DOX. In kind it is cell-based, human. The method, then:
as §3, §2

Assay [4] concerns BT-20 cells. The assay is described as follows: RNA expression analysis by microarray. Format: cell-based, human. The following applies: for differentially expressed genes (DEGs): erlotinib alone. From the text:
(§4) RNA was extracted from cells using the RNAeasy Kit (QIAGEN). Affymetrix Human U133 Plus 2.0 microarrays were hybridized, labeled, and processed on a fee-for-service basis through the MIT BioMicro Center. Microarray data were obtained from three independent biological replicates per time point and analyzed using linear model for microarray (LIMMA).
(§5) RNA was extracted from cells using the RNAeasy Kit (QIAGEN). Affymetrix Human U133 Plus 2.0 microarrays were hybridized, labeled and processed on a fee-for-service basis through the BioMicro Center at MIT. Microarray data were obtained from 3 independent biological replicates per time point. Detailed analysis of microarray data was performed with help from the Bioinformatics Core Facility at the Koch Institute at MIT. Expression data can be found in the GEO repository under the accession number GSE30516.

Assay [5] has as its system MCF7 cells. Nature of the assay: RNA expression analysis by microarray. In kind it is cell-based, human. Particulars: erlotinib alone, 24 hr.
Text: as §4, §5

Assay [6] has as its system MDA-MB-453 cells. The assay is described as follows: RNA expression analysis by microarray. The following applies: erlotinib alone, 24 hr. In kind it is cell-based, human.
Text: as §4, §5

The subject of assay [7] is BT-20 cells. Nature of the assay: Soft agar growth assay. Particulars: sustained EGFR inhibition with erlotinib. Format: cell-based, human. The method, then:
Soft agar growth assays were performed as described by Sapi, E., Flick, M. B., Rodov, S, and Kacinski, B. M. (1998). Ets-2 Transdominant Mutant Abolishes Anchorage-Independent Growth and Macrophage Colony Stimulating Factor-Stimulated Invasion by BT20 Breast Carcinoma Cells. Cancer Res. 58, 1027-1033.

In assay [8] the test system is caspase-8. Nature of the assay: Caspase-8 cleavage by western blot in TNBC cell lines. The following applies: TNBC cell lines in which ERL→DOX was synergistic; 8 hr after DOX. In kind it is cell-based, human. From the text: (§6) Cells were lysed in a manner that would allow samples to be used for both western blot analysis and reverse-phase protein microarray. Data generated by quantitative western blot were preprocessed prior to use in computational modeling. Raw signals for each protein target of interest were quantified and background subtracted using the Li-COR Odyssey software and divided by P-actin signals to normalize for loading differences, and then each normalized signal was divided by a reference sample contained on each gel for gel-to-gel normalization.
(In general: In western blotting, separated proteins are transferred to a membrane and probed.)

Assay [9] has as its system caspase-8. The assay is described as follows: Caspase-8 cleavage by western blot in lung cancer cell lines. Format: cell-based, human. The following applies: ERL→DOX in NCI-H1650, A549 and NCI-H358.
Text: as §6

The next assay deals with BT-20 xenograft tumors. Nature of the assay: Xenograft tumor model.
For assay [10], the system named is MCF7 cells. Nature of the assay: Apoptosis, cleaved caspase-3/cleaved PARP flow cytometry. A general note: Flow cytometry measures light scatter and fluorescence of single cells or particles in a stream.
For a further assay, the system named is NCI-H1650 cells. Described as above. Particulars: time-staggered inhibition of EGFR using erlotinib (ERL→DOX).
The subject of a further assay is A549. Described as above. Particulars: time-staggered inhibition of EGFR using erlotinib (ERL→DOX).
The next assay concerns NCI-H358. The assay is described as above. Particulars: time-staggered inhibition of EGFR using erlotinib (ERL→DOX).
The test system of assay [11] is caspase-8. Nature of the assay: Caspase-8 cleavage by western blot in HER2-driven cells. In kind it is cell-based, human. Particulars: lapatinib/doxorubicin combinations in HER2-driven cells (MDA-MB-453, BT-474).
Text: as §6

The mark [12] stands for this setting: single dose doxorubicin alone, 4 mg/kg intraperitoneally.
Setting [13] is: all temporal combinations of lapatinib and doxorubicin, HER2-overexpressing cells.
[14] abbreviates: lapatinib pretreatment (LAP→DOX).

“Also recorded” adds a separate entry of the source. Read-outs that look alike come from different tables or passages of the source.

On to `C#Cc1cccc(Nc2ncnc3cc(OCCOC)c(OCCOC)cc23)c1` [erlotinib], for which, in the assay on BT-20 cells [1], the “increase in cell killing (apoptotic response)” value is at most 500%. Also, the “interaction with doxorubicin in killing (Chou-Talalay method)” value in the assay on BT-20 cells [1] was “synergistic”. Also, the “killing in combination with camptothecin” value in the assay with BT-20 cells [1] was “Synergistic killing”. Moreover, the “killing in combination with doxorubicin” value in the assay with BT-20 cells [1] is on record as “Synergistic killing”. Further, the “effect on apoptosis of adding erlotinib to EGFR knockdown cells” value in the assay on BT-20 cells [1] (EGFR siRNA knockdown, delayed doxorubicin) is on record as “no additional effect”. Also, the cell death entry in the assay on BT-20 cells [1] (erlotinib alone), in the assay with MDA-MB-453 cells [2] (erlotinib alone) and in the assay on MCF7 cells [10] (erlotinib alone) was “did not cause death” throughout. Also, in the assay with BT-20 cells [1] (erlotinib alone or added at the same time as or shortly before doxorubicin, 10 μM, TNBC (BT-20) cells), the apoptotic stimulus entry is “not a potent apoptotic stimulus”. Also, the “effect on sensitivity to doxorubicin” value with BT-474 cells (pretreatment with erlotinib) was “desensitization”. Also, the “effect on doxorubicin sensitivity” value with MDA-MB-453 cells [2] (chronic EGFR inhibition, erlotinib pretreatment before doxorubicin) is “antagonized doxorubicin sensitivity; also recorded: desensitized”. Further, the “effect of order and timing of drug addition on apoptosis” value with Hs578Bst is listed as “little effect”. In addition, in assay [3] (sustained EGFR inhibition), the “cell lines with enhanced sensitivity to doxorubicin” value is recorded as “nine of ten”. The “cell lines with synergistic effect” value in [3] (Chou-Talalay combination index) is “four of the ten”. For the same compound, the “breast cancer subtype gene expression pattern” value with BT-20 cells [4] (chronic erlotinib treatment) is “progressive time-dependent loss of basal-like gene expression with concomitant gain in luminal A-like gene expression”. Besides, the “differentially expressed genes (DEGs)” value with BT-20 cells [4] (30 min) is listed as “few”; in the assay with BT-20 cells [4] (6 hr) it was “more than 1,200”; in the assay on BT-20 cells [4] (24 hr) it was “more than 2,000”; with MDA-MB-453 cells [6], 235. Moreover, in the assay with BT-20 cells [4] (long-term erlotinib treatment), the “GeneGO cellular networks with significant changes (of 34)” value was determined as 16. Also, in the assay with BT-20 cells [4] (sustained erlotinib exposure), the GSEA oncogenic signatures result is “loss of the Ras and MYC oncogenic signatures”. Besides, the genes significantly altered entry with MCF7 cells [5] is recorded as “one”. Further, the “soft agar colony formation” value in the assay on BT-20 cells [7] is “potently inhibited”. Also, the caspase-8 cleavage entry in the assay on caspase-8 [8] is “caspase-8 cleavage following sequential administration, but not other drug treatments”; with caspase-8 [9] it was “associated with caspase-8 cleavage”. Also, the tumor regrowth result in the assay with BT-20 xenograft tumors (erlotinib 25 mg/kg given 8 hr prior to doxorubicin 4 mg/kg (E→D), i.p., 14 day monitoring) is “failed to regrow”. For the same compound, in the assay on BT-20 xenograft tumors (erlotinib 25 mg/kg given at the same time as doxorubicin 4 mg/kg (D/E), i.p.), the “initial reduction in tumor size versus doxorubicin alone” value was “initial reduction in tumor size was greater”. Further, in the assay on MCF7 cells [10] (all temporal erlotinib-doxorubicin combinations), the “interaction with doxorubicin (Chou-Talalay method)” value was “merely additive”. For the same compound, the “sensitization to killing by doxorubicin” value with NCI-H1650 cells, with A549 and with NCI-H358 was “dramatic sensitization” in each case.

For the compound `COc1cccc2c1C(=O)c1c(O)c3c(c(O)c1C2=O)C[C@@](O)(C(=O)CO)C[C@@H]3O[C@H]1C[C@H](N)[C@H](O)[C@H](C)O1` [doxorubicin], in the assay with BT-20 xenograft tumors (setting [12]), the “time at which residual tumors reached pretreatment volume” value was 14 days and the “tumor volume over the first 3 days after treatment” value is on record as “marked reduction in tumor volume”.

With `CS(=O)(=O)CCNCc1ccc(-c2ccc3ncnc(Nc4ccc(OCc5cccc(F)c5)c(Cl)c4)c3c2)o1` [lapatinib], in the assay on BT-20 cells [1] (time-staggered pretreatment with EGFR inhibitor, then camptothecin), the “killing in combination with camptothecin” value is on record as “Synergistic killing”. Further, in the assay on BT-20 cells [1] (time-staggered pretreatment with EGFR inhibitor, then doxorubicin), the “killing in combination with doxorubicin” value is reported as “Synergistic killing”. Besides, the interaction with doxorubicin result in the assay on BT-474 cells (setting [13]) and with MDA-MB-453 cells [2] (setting [13]) was “synergistic” each time. Further, the “effect on sensitivity to doxorubicin” value with BT-474 cells (setting [14]) and with MDA-MB-453 cells [2] (setting [14]) was “enhanced sensitivity to doxorubicin” throughout. Also, the caspase-8 cleavage entry in the assay on caspase-8 [11] is “only observed following LAP→DOX treatment”.
